# Test results from article PMC9668969 (Nature Communications, 2022).
# “And” between values parts separate entries of the source, which are not always exact repeats. Equal entries are not always repeated. Where two headings read alike, the source gives them in different places.
# Test system: WT ELIC
# Assay: Fluorescence stopped-flow liposomal Tl+ flux assay, symmetric liposomes
# Format: biochemical, Erwinia chrysanthemi
# Parameters: Tl+ flux quenching rate, Avg. / Tl+ flux quenching rate: unit not given here
# Conditions: for time constant of activation by Tl+ flux: 10 mM propylamine; for EC50: read-out: EC50 of peak Tl+ flux rate; for Rate (stopped-flow fluorescence quenching rate) / Avg (stopped-flow fluorescence quenching rate): WT in 2:1:1 PC:PE:PG liposomes; for Rate (stopped-flow fluorescence quenching rate): single experiments; for Avg (stopped-flow fluorescence quenching rate): average of experiments
# Description: The fluorescence sequential-mixing stopped-flow liposomal flux measurements were carried using an SX20 stopped-flow spectrofluorometer (Applied Photophysics) and Pro-Data SX software[13],[30]. 7.5 mg of the respective lipid mixture (POPC, 1:1 POPC: POPE, 1:1 POPC:POPG, 3:1 POPC:POPE, 3:1 POPC:POPG, 2:1:1 POPC:POPE:POPG) was dried in a glass vial to a thin film under a constant stream of N2. The lipids were then further dried under vacuum in a desiccator overnight. The following day the lipids were hydrated in 500 µl of reconstitution buffer (100 mM NaNO3, 10 mM HEPES, pH 7) (Buffer R), 250 µl of 75 mM 8-Aminonaphthalene-1,3,6-Trisulfonic Acid (ANTS, ThermoFisher Scientific) in buffer R, and doped with ~18 mg of CHAPS (Anatrace). The mixture was vortexed and then sonicated with heat until completely solubilized. Following the sonication, the solution was brought to RT then 3.5 µl of 6.7 mg/ml ELIC in Buffer A with 0.02% DDM was added (3 µg per mg of lipid). This combined solution was incubated at RT for 30 min, followed by the addition of 1 ml of 1:1 v/v SM-2 BioBeads in Buffer R and an additional 250 µl of 75 mM ANTS in Buffer R. This mixture was incubated at RT for 2.5 hr with gentle mixing. The liposome suspension was then extruded with an Avanti mini-extruder and 0.1 µm membrane (30×). The extruded liposomes were stored at 13 °C overnight with gentle rotation. The next day, the liposomes were diluted to 2.5 mL using assay buffer (140 mM NaNO3, 10 mM HEPES, pH 7) (Stopped-flow Buffer A), loaded into a PD-10 desalting column (Cytiva), eluted with 3 mL of Stopped-flow Buffer A and subsequently diluted 5-fold with Stopped-flow Buffer A.
# Using propylamine as the agonist, the assay and analysis was carried out as previously described[13],[30]. ELIC-containing liposomes were first mixed 1:1 with Buffer A containing 2× the concentration of propylamine. After a variable delay of 10 ms to 25 s, the sample was then mixed 1:1 with a quenching buffer (90 mM NaNO3, 50 mM TlNO3, 10 mM HEPES, pH 7), and ANTS fluorescence (ex. 360 nm, fluorescence above 420 nm) was recorded for 1 s. For each delay time, 5 repeat measurements were obtained. The data were collected using Applied Photophysics Pro-Data SX software. The fluorescence quenching traces were fit to a stretched exponential (Eq. 2a) and the rate of Tl^+ influx was determined at 2 ms (Eq. 2b).2a Ft=F∞+F0−F∞⋅e^−t/τ^β 2b kt=β/τ⋅2ms/τ^(β−1) where Ft, F∞, F0 are the fluorescence at time t, final fluorescence and initial fluorescence. τ is the time constant, β the stretched exponential factor, and kt the calculated rate of Tl^+ influx at 2 ms. The time course of desensitization was also fit to a double exponential and a weighted time constant was calculated as was done for the patch-clamp data using Origin 2019b. All replicates were taken from independent samples.
smiles,measurement,setting,value
CCCN [propylamine],time constant of activation by Tl+ flux,2:1:1 liposomes,41 ± 34 ms
same,time constant of activation by Tl+ flux,POPC liposomes,20 ± 6 ms
same,EC50,"2:1:1 POPC:POPE:POPG liposomes, no BaCl2, Hill fit",2.4 mM and ~2 mM
same,Hill n of peak Tl+ flux dose response,2:1:1 liposomes,2.2 ± 0.7
same,Hill n of peak Tl+ flux dose response,POPC liposomes,3.6 ± 0.6
same,EC50,"POPC liposomes, Hill fit",4.3 ± 1.4 mM
same,"Tl+ flux quenching rate, Avg.","WT 1:1 PC:PE 10 mM PA, delay 0.01 s",12.8731
same,"Tl+ flux quenching rate, Avg.","WT 1:1 PC:PE 10 mM PA, delay 0.025 s",18.7932
same,"Tl+ flux quenching rate, Avg.","WT 1:1 PC:PE 10 mM PA, delay 0.05 s",16.1105
same,"Tl+ flux quenching rate, Avg.","WT 1:1 PC:PE 10 mM PA, delay 0.1 s",21.9541
same,"Tl+ flux quenching rate, Avg.","WT 1:1 PC:PE 10 mM PA, delay 0.25 s",19.0107
same,"Tl+ flux quenching rate, Avg.","WT 1:1 PC:PE 10 mM PA, delay 0.5 s",18.8714
same,"Tl+ flux quenching rate, Avg.","WT 1:1 PC:PE 10 mM PA, delay 1 s",13.7475
same,"Tl+ flux quenching rate, Avg.","WT 1:1 PC:PE 10 mM PA, delay 2.5 s",11.8878
same,"Tl+ flux quenching rate, Avg.","WT 1:1 PC:PE 10 mM PA, delay 5 s",9.713
same,"Tl+ flux quenching rate, Avg.","WT 1:1 PC:PE 10 mM PA, delay 10 s",6.252
same,"Tl+ flux quenching rate, Avg.","WT 1:1 PC:PE 10 mM PA, delay 25 s",0.8964
same,"Tl+ flux quenching rate, Avg.","WT 1:1 PC:PG 10 mM PA, delay 0.01 s",3.795
same,"Tl+ flux quenching rate, Avg.","WT 1:1 PC:PG 10 mM PA, delay 0.025 s",9.924
same,"Tl+ flux quenching rate, Avg.","WT 1:1 PC:PG 10 mM PA, delay 0.05 s",11.1292
same,"Tl+ flux quenching rate, Avg.","WT 1:1 PC:PG 10 mM PA, delay 0.1 s",12.6513
same,"Tl+ flux quenching rate, Avg.","WT 1:1 PC:PG 10 mM PA, delay 0.25 s",13.2242
same,"Tl+ flux quenching rate, Avg.","WT 1:1 PC:PG 10 mM PA, delay 0.5 s",14.1908
same,"Tl+ flux quenching rate, Avg.","WT 1:1 PC:PG 10 mM PA, delay 1 s",14.7233
same,"Tl+ flux quenching rate, Avg.","WT 1:1 PC:PG 10 mM PA, delay 2.5 s",12.796
same,"Tl+ flux quenching rate, Avg.","WT 1:1 PC:PG 10 mM PA, delay 5 s",11.2973
same,"Tl+ flux quenching rate, Avg.","WT 1:1 PC:PG 10 mM PA, delay 10 s",8.515
same,"Tl+ flux quenching rate, Avg.","WT 1:1 PC:PG 10 mM PA, delay 25 s",1.356
same,"Tl+ flux quenching rate, Avg.","WT 2:1:1 PC:PE:PG 10 mM PA, delay 0.01 s",108.066
same,"Tl+ flux quenching rate, Avg.","WT 2:1:1 PC:PE:PG 10 mM PA, delay 0.025 s",129.134
same,"Tl+ flux quenching rate, Avg.","WT 2:1:1 PC:PE:PG 10 mM PA, delay 0.05 s",140.06
same,"Tl+ flux quenching rate, Avg.","WT 2:1:1 PC:PE:PG 10 mM PA, delay 0.1 s",141.696
same,"Tl+ flux quenching rate, Avg.","WT 2:1:1 PC:PE:PG 10 mM PA, delay 0.25 s",158.52
same,"Tl+ flux quenching rate, Avg.","WT 2:1:1 PC:PE:PG 10 mM PA, delay 0.5 s",169.325
same,"Tl+ flux quenching rate, Avg.","WT 2:1:1 PC:PE:PG 10 mM PA, delay 1 s",150.743
same,"Tl+ flux quenching rate, Avg.","WT 2:1:1 PC:PE:PG 10 mM PA, delay 2.5 s",114.107
same,"Tl+ flux quenching rate, Avg.","WT 2:1:1 PC:PE:PG 10 mM PA, delay 5 s",89.8389
same,"Tl+ flux quenching rate, Avg.","WT 2:1:1 PC:PE:PG 10 mM PA, delay 10 s",66.5759
same,"Tl+ flux quenching rate, Avg.","WT 2:1:1 PC:PE:PG 10 mM PA, delay 25 s",19.0264
same,"Tl+ flux quenching rate, Avg.","WT 3:1 PC:PE 10 mM PA, delay 0.01 s",13.3934
same,"Tl+ flux quenching rate, Avg.","WT 3:1 PC:PE 10 mM PA, delay 0.025 s",16.8702
same,"Tl+ flux quenching rate, Avg.","WT 3:1 PC:PE 10 mM PA, delay 0.05 s",17.8262
same,"Tl+ flux quenching rate, Avg.","WT 3:1 PC:PE 10 mM PA, delay 0.1 s",25.5678
same,"Tl+ flux quenching rate, Avg.","WT 3:1 PC:PE 10 mM PA, delay 0.25 s",25.5466
same,"Tl+ flux quenching rate, Avg.","WT 3:1 PC:PE 10 mM PA, delay 0.5 s",29.8205
same,"Tl+ flux quenching rate, Avg.","WT 3:1 PC:PE 10 mM PA, delay 1 s",23.2733
same,"Tl+ flux quenching rate, Avg.","WT 3:1 PC:PE 10 mM PA, delay 2.5 s",17.3881
same,"Tl+ flux quenching rate, Avg.","WT 3:1 PC:PE 10 mM PA, delay 5 s",8.6052
same,"Tl+ flux quenching rate, Avg.","WT 3:1 PC:PE 10 mM PA, delay 10 s",3.015
same,"Tl+ flux quenching rate, Avg.","WT 3:1 PC:PE 10 mM PA, delay 25 s",0.5341
same,"Tl+ flux quenching rate, Avg.","WT 3:1 PC:PG 10 mM PA, delay 0.01 s",3.538
same,"Tl+ flux quenching rate, Avg.","WT 3:1 PC:PG 10 mM PA, delay 0.025 s",5.637
same,"Tl+ flux quenching rate, Avg.","WT 3:1 PC:PG 10 mM PA, delay 0.05 s",6.577
same,"Tl+ flux quenching rate, Avg.","WT 3:1 PC:PG 10 mM PA, delay 0.1 s",5.156
same,"Tl+ flux quenching rate, Avg.","WT 3:1 PC:PG 10 mM PA, delay 0.25 s",10.2935
same,"Tl+ flux quenching rate, Avg.","WT 3:1 PC:PG 10 mM PA, delay 0.5 s",10.5897
same,"Tl+ flux quenching rate, Avg.","WT 3:1 PC:PG 10 mM PA, delay 1 s",10.9346
same,"Tl+ flux quenching rate, Avg.","WT 3:1 PC:PG 10 mM PA, delay 2.5 s",9.589
same,"Tl+ flux quenching rate, Avg.","WT 3:1 PC:PG 10 mM PA, delay 5 s",8.149
same,"Tl+ flux quenching rate, Avg.","WT 3:1 PC:PG 10 mM PA, delay 10 s",1.496
same,"Tl+ flux quenching rate, Avg.","WT 3:1 PC:PG 10 mM PA, delay 25 s",1.028
same,"Tl+ flux quenching rate, Avg.","WT PC 10 mM PA, delay 0.01 s",3.242
same,"Tl+ flux quenching rate, Avg.","WT PC 10 mM PA, delay 0.025 s",7.793
same,"Tl+ flux quenching rate, Avg.","WT PC 10 mM PA, delay 0.05 s",10.0904
same,"Tl+ flux quenching rate, Avg.","WT PC 10 mM PA, delay 0.1 s",10.8806
same,"Tl+ flux quenching rate, Avg.","WT PC 10 mM PA, delay 0.25 s",11.6946
same,"Tl+ flux quenching rate, Avg.","WT PC 10 mM PA, delay 1 s",9.9293
same,"Tl+ flux quenching rate, Avg.","WT PC 10 mM PA, delay 2.5 s",4.516
same,"Tl+ flux quenching rate, Avg.","WT PC 10 mM PA, delay 5 s",0.8684
same,"Tl+ flux quenching rate, Avg.","WT PC 10 mM PA, delay 10 s",0.09487
same,"Tl+ flux quenching rate, Avg.","WT PC 10 mM PA, delay 25 s",0.1384
same,"Tl+ flux quenching rate, Avg.","WT PC 10 mM PA, delay printed 0.05 (line r87, between 0.25 and 1)",13.718
same,Rate (stopped-flow fluorescence quenching rate),"0.3 mM PA, delay time 0",0
same,Avg (stopped-flow fluorescence quenching rate),"0.3 mM PA, delay time 0.025",0.05393
same,Avg (stopped-flow fluorescence quenching rate),"0.3 mM PA, delay time 0.05",0.1144
same,Avg (stopped-flow fluorescence quenching rate),"0.3 mM PA, delay time 0.1",0.02985
same,Rate (stopped-flow fluorescence quenching rate),"0.3 mM PA, delay time 0.1, listed as PA",0.02819 and 0.02444 and 0.03693
same,Avg (stopped-flow fluorescence quenching rate),"0.3 mM PA, delay time 0.25",0.2226
same,Avg (stopped-flow fluorescence quenching rate),"0.3 mM PA, delay time 0.5",0.07829
same,Rate (stopped-flow fluorescence quenching rate),"0.3 mM PA, delay time 0.5, listed as PA",0.05209 and 0.08034 and 0.1024
same,Avg (stopped-flow fluorescence quenching rate),"0.3 mM PA, delay time 1",0.1269
same,Avg (stopped-flow fluorescence quenching rate),"0.3 mM PA, delay time 2.5",0.07966
same,Avg (stopped-flow fluorescence quenching rate),"0.3 mM PA, delay time 5",0.1012
same,Avg (stopped-flow fluorescence quenching rate),"0.3 mM PA, delay time 10",0.07302
same,Avg (stopped-flow fluorescence quenching rate),"0.3 mM PA, delay time 25",0.144
same,Rate (stopped-flow fluorescence quenching rate),"0.3 mM PA, delay time 25, listed as PA",0.1101 and 0.1736 and 0.1484
same,Rate (stopped-flow fluorescence quenching rate),"1 mM PA, delay time 0",0
same,Avg (stopped-flow fluorescence quenching rate),"1 mM PA, delay time 0.025",0.05821
same,Avg (stopped-flow fluorescence quenching rate),"1 mM PA, delay time 0.05",0.3418
same,Avg (stopped-flow fluorescence quenching rate),"1 mM PA, delay time 0.1",0.7543
same,Avg (stopped-flow fluorescence quenching rate),"1 mM PA, delay time 0.25",9.601
same,Avg (stopped-flow fluorescence quenching rate),"1 mM PA, delay time 0.5",9.433
same,Avg (stopped-flow fluorescence quenching rate),"1 mM PA, delay time 1",13.1765
same,Avg (stopped-flow fluorescence quenching rate),"1 mM PA, delay time 2.5",13.927
same,Avg (stopped-flow fluorescence quenching rate),"1 mM PA, delay time 5",16.0207
same,Avg (stopped-flow fluorescence quenching rate),"1 mM PA, delay time 10",13.7137
same,Avg (stopped-flow fluorescence quenching rate),"1 mM PA, delay time 25",8.387
same,Rate (stopped-flow fluorescence quenching rate),"3 mM PA, delay time 0",0
same,Avg (stopped-flow fluorescence quenching rate),"3 mM PA, delay time 0.05",279.785
same,Avg (stopped-flow fluorescence quenching rate),"3 mM PA, delay time 0.1",279.666
same,Avg (stopped-flow fluorescence quenching rate),"3 mM PA, delay time 0.25",300.719
same,Avg (stopped-flow fluorescence quenching rate),"3 mM PA, delay time 0.5",352.59
same,Avg (stopped-flow fluorescence quenching rate),"3 mM PA, delay time 1",284.973
same,Avg (stopped-flow fluorescence quenching rate),"3 mM PA, delay time 2.5",176.344
